Source: ChEMBL document CHEMBL5390278, “PPARα/γ-Targeting Amorfrutin Phytocannabinoids from Aerial Parts of Glycyrrhiza foetida” (J Nat Prod, 2023)
The source made the active and inactive calls. The rule behind the calls is not given here.

What was measured:
COS-7 = experiment: Cytotoxicity against African green monkey COS-7 cells assessed as cell viability at 1 to 30 uM incubated for 24 hrs by MTT assay; format: toxicity, cell-based; details: chlorocebus aethiops, cos-7, 24 h, dose 1-30 µM
[1] = target: T1, Peroxisome proliferator-activated receptor alpha (Homo sapiens) (UniProt Q07869); experiment: Agonist activity at human PPAR alpha transfected in African green monkey COS-7 cells co-transfected with CMX-Gal4 fused hPPARalpha/TK-MH100x4-Luc/renilla luciferase assessed as fold increase in luciferase activity at 10 uM incubated for 24 hrs by Dual-Glo luciferase assay; format: cell-based; details: filed as agonist
T1 sequence (whole entry): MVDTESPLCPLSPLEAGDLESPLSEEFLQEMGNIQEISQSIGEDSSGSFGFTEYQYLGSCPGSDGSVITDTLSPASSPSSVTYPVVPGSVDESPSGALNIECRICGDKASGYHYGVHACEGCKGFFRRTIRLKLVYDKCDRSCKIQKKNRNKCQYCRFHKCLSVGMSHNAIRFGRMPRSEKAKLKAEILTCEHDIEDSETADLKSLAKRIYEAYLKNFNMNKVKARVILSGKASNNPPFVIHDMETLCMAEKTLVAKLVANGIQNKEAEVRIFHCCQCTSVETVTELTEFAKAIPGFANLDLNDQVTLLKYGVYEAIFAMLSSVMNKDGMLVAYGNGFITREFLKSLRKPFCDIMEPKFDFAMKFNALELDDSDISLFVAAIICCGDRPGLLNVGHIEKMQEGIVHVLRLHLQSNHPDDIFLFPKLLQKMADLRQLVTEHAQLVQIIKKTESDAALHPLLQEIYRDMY

[2] = target: T2, Peroxisome proliferator-activated receptor gamma (Homo sapiens) (UniProt P37231); experiment: Agonist activity at human PPAR gamma transfected in African green monkey COS-7 cells co-transfected with CMX-Gal4 fused hPPARgamma/TK-MH100x4-Luc/renilla luciferase at 10 uM incubated for 24 hrs by Dual-Glo luciferase assay; format: cell-based; details: filed as agonist
T2 sequence (whole entry): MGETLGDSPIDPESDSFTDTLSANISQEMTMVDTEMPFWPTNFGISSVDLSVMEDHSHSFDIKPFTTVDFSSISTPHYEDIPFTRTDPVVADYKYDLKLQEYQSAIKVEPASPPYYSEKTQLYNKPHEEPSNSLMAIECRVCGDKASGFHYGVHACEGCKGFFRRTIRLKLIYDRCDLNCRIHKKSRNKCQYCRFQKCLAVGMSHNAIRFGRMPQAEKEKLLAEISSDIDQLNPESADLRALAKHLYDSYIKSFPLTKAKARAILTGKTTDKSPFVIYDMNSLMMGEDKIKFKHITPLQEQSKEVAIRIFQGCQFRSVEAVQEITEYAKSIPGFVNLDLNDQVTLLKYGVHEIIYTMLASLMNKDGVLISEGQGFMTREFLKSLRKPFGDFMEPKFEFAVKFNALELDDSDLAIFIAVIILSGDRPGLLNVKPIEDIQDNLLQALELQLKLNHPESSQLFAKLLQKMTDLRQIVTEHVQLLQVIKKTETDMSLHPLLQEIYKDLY

[3] = target: T2, Peroxisome proliferator-activated receptor gamma (Homo sapiens); experiment: Agonist activity at human PPAR gamma transfected in African green monkey COS-7 cells co-transfected with CMX-Gal4 fused hPPARgamma/TK-MH100x4-Luc/renilla luciferase assessed as fold increase in luciferase activity at 10 uM incubated for 24 hrs by Dual-Glo luciferase assay; format: cell-based

| SMILES | Activity (COS-7) | fold change (FC) [1] | further results |
| --- | --- | --- | --- |
| CC(C)=CCc1c(O)cc(CCc2ccccc2)cc1O | Toxic |  |  |
| C=C(C)C(O)Cc1c(OC)cc(CCc2ccccc2)c(C(=O)O)c1O (racemic) |  | 5 | Activity [2]: Active |
| CCCCCc1cc(OC)c(CC=C(C)C)c(O)c1C(=O)O | Toxic |  |  |
| COc1c(CC=C(C)C)c(O)c(C(=O)O)c(CCc2ccccc2)c1CC=C(C)C |  |  | Activity [2]: Active |
| CCCCCc1cc(OC)c2c(c1C(=O)O)OC(C(C)(C)O)C2 (racemic) |  | 5 |  |
| COc1cc(/C=C/c2ccccc2)cc(O)c1CC=C(C)C | Toxic |  |  |
| CCCCCc1cc(O)c(CC=C(C)C)c(O)c1CC=C(C)C |  | 5 |  |
| COc1cc(/C=C/c2ccccc2)cc(OC)c1CC=C(C)C | Toxic |  |  |
| COc1cc(CCc2ccccc2)cc(OC)c1CC=C(C)C | Toxic |  |  |
| COc1cc(C#Cc2ccccc2)cc(OC)c1CC=C(C)C | Toxic |  |  |
| COc1cc(CCc2ccccc2)cc(O)c1CC=C(C)C | Toxic |  |  |
| CC(C)=CCc1c(O)cc(CCc2ccccc2)c(CC=C(C)C)c1O | Toxic |  |  |
| C=C(C)C(O)Cc1c(OC)cc(CCCCC)c(C(=O)O)c1O (racemic) |  | 5 | Activity [2]: Active |
| COc1cc(CCc2ccccc2)c(C(=O)O)c2c1[C@H](OC)[C@@H](C(C)(C)O)O2 | Toxic |  |  |
| COc1cc(CCc2ccccc2)c(C(=O)O)c2occc12 |  | 5 |  |
| C=C(C)C(Cc1c(OC)cc(CCc2ccccc2)c(C(=O)O)c1O)OO (racemic) |  | 5 | Activity [2]: Active |
| COc1cc(CCc2ccccc2)c(C(=O)O)c(O)c1CC=C(C)C |  | 5 | fold change (FC) [3]: > 20; Activity [2]: Active |
